We go through two molecules from ChEMBL document CHEMBL1201862, “PubChem BioAssay data set” (2004).

Common to all, as to experiment: growth of human tumour cells (NCI), 48 h
The test system of assay [1] is A498.
Assay [2] relates to A549.
In assay [3] the test system is EKVX.
The test system of assay [4] is HCT-15.
Assay [5] has as its system HOP-62.
Assay [6] concerns IGROV-1.
Assay [7] concerns K562.
For assay [8], the system named is M14.
Assay [9] relates to NCI-H460.
In assay [10] the test system is OVCAR-4.
In assay [11] the test system is OVCAR-8.
Assay [12] has as its system RPMI-8226.
Assay [13] deals with SF-268.
Assay [14] concerns SF-295.
Assay [15] has as its system SK-MEL-2.
In assay [16] the test system is SN12C.
Assay [17] has as its system SR.
In assay [18] the test system is TK-10.
The subject of assay [19] is U-251.
The subject of assay [20] is UACC-62.

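Grown in 96-well plates, cells were treated for 48 hours with each compound at five concentrations. Insufficient inhibition: endpoint recorded as highest concentration tested. At the GI50, growth is halved.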 Active and inactive are the calls of the source. Rule as the data show it: active = GI50 up to about 1.1 µM and inactive = higher.

As to `CC1(C)CC[C@]2(C(=O)O)CC[C@]3(C)[C@H](C(=O)C=C4[C@@]5(C)C=C(C#N)C(=O)C(C)(C)[C@@H]5CC[C@]43C)[C@@H]2C1` [BARDOXOLONE], the GI50 is 391 nM (active) in assay [1]; 1160 nM (inactive) in [2]; 1340 nM (inactive) in assay [3]; 113 nM in assay [4]; 665 nM (active) in assay [5]; 762 nM (active) in assay [6]. Moreover, the GI50 in assay [7] is 263 nM (active); in assay [8], 769 nM (active); in assay [9], 486 nM (active); in assay [10] it was 1030 nM (active); in assay [11], 577 nM (active); in [12] it was 21.4 nM (active). The GI50 in [13] is 659 nM (active); in [14], 573 nM (active); in assay [15], 1000 nM (active); in [16], 493 nM (active); in [17], 56.1 nM (active); in assay [18], 678 nM (active). For the same molecule, the values for the GI50 in [19] and in assay [20] were 274 nM (active) and 200 nM (active), respectively.
As for `COc1ccc(N/N=C2\CCOc3ccc(C)cc3C2=O)cc1`, the GI50 in assay [1] is 59800 nM (inactive); in assay [2], 21300 nM (inactive); in assay [3], 21300 nM (inactive); in assay [4], 5520 nM; in [5], 39200 nM (inactive); in assay [6], 17700 nM (inactive). In addition, the GI50 in assay [7] was 4430 nM (inactive); in assay [8], 26900 nM (inactive); in assay [9], 13700 nM (inactive); in assay [10], 14500 nM (inactive); in assay [11], 31800 nM (inactive); in assay [12], 25500 nM (inactive). The GI50 in [13] is 35500 nM (inactive); in assay [14] it was 10300 nM (inactive); in assay [15] it was 16800 nM (inactive); in [16], 40600 nM (inactive); in assay [17], 15600 nM (inactive); in assay [18] it was 55600 nM (inactive). Besides, the GI50 is 20900 nM (inactive) in [19] and 6810 nM (inactive) in assay [20].
